{"source": "patent US11530199B2", "about": "“Analogs for the treatment of disease” (Insilico Medicine IP Limited, priority 2021, dated 2022)"}
{"assay": "Metabolic stability in human liver microsomes;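 also: NADPH-supplemented incubation in 100 mM potassium phosphate buffer, compound loss sampled at 0, 5, 10, 20, 30 and 60 min by LC-MS/MS, first-order kinetics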", "format": "in vitro ADME", "conditions": "LM Clint; human liver microsomes 0.5 mg protein/mL, test compound 1 μM, 37° C., up to 60 min", "protocol": "Test Compound and Control Working Solution Preparation: Working solution: 5 μL of compound and control stock solution (10 mM in dimethyl sulfoxide (DMSO)) were diluted with 495 µL of acetonitrile (ACN) (intermediate solution concentration: 100 μM, 99% ACN).\nPreparation Procedure: The appropriate amount of NADPH powder was weighed and diluted into a 10 mM MgCl2 solution (working solution concentration: 10 unit/mL; final concentration in reaction system: 1 unit/mL).\nPreparation Procedure: The appropriate concentrations of microsome working solutions were prepared in 100 mM potassium phosphate buffer.\nStop Solution Preparation: Cold (4° C.) acetonitrile (ACN) containing 200 ng/mL tolbutamide and 200 ng/mL labetalol as internal standards (IS) was used as the stop solution.\nDilute liver microsomes to 0.56 mg/mL in 100 mM phosphate buffer.\nTransfer 445 μL microsome working solutions (0.56 mg/mL) into pre-warmed ‘Incubation’ plates T60 and NCF60, Then pre-incubate ‘Incubation’ plates T60 and NCF60 for 10 min at 37° C. with constant shaking. Transfer 54 μL liver microsomes to blank plate, then add 6 μL NAPDH cofactor to blank plate, and then add 180 μL quenching solution to blank plate.\n2.5.4 Add 5 μL compound working solution (100 μM) into ‘incubation’ plates (T60 and NCF60) containing microsomes and mix 3 times thoroughly.\nFor the NCF60 plate, add 50 μL of buffer and mix 3 times thoroughly. Start timing; plate will be incubated at 37° C. for 60 min while shaking.\nIn ‘Quenching’ plate T0, add 180 μL quenching solution and 6 μL NAPDH cofactor. Ensure the plate is chilled to prevent evaporation.\nFor the T60 plate, mix 3 times thoroughly, and immediately remove 54 μL mixture for the 0-min time point to ‘Quenching’ plate. Then add 44 μL NAPDH cofactor to incubation plate (T60). Start timing; plate will be incubated at 37° C. for 60 min while shaking.\nAt 5, 10, 20, 30, and 60 min, add 180 μL quenching solution to ‘Quenching’ plates, mix once, and serially transfer 60 μL sample from T60 plate per time point to ‘Quenching’ plates.\nFor NCF60: mix once, and transfer 60 μL sample from the NCF60 incubation to ‘Quenching’ plate containing quenching solution at the 60-min time point.\nAll sampling plates are shaken for 10 min, then centrifuged at 4000 rpm for 20 minutes at 4° C.\nTransfer 80 μL supernatant into 240 μL HPLC water, and mix by plate shaker for 10 min.\nEach bioanalysis plate was sealed and shaken for 10 minutes prior to LC-MS/MS analysis.\nThe equation of first order kinetics was used to calculate T1/2 and Intrinsic clearance (CLint mic) in (μL/min/mg)."}
{"smiles": "CN1CCN(c2ccc(NC(=O)c3c[nH]c(-c4c(-c5ccc(F)cc5)ncn4C4CCC(O)CC4)n3)cc2)CC1", "note": "(stereo not shown) [Compound 172]", "Human Liver Microsome (μM/min/mg)": "+++ (1-10 μM/min/mg as +++)"}
{"smiles": "CC(C)n1cnc(-c2ccc(F)cc2)c1-c1nc(C(=O)Nc2ccc(N3CCN(C(N)=O)CC3)cc2)c[nH]1", "note": "[Compound 99, N-(4-(4-carbamoylpiperazin-1-yl)phenyl)-5′-(4-fluorophenyl)-3′-isopropyl-1H,3′H-[2,4′-biimidazole]-4-carboxamide]", "Human Liver Microsome (μM/min/mg)": "++ (10-100 μM/min/mg as ++)"}
{"smiles": "CN1CCN(c2ccc(NC(=O)c3c[nH]c(-c4c(-c5ccc(F)cc5)ncn4CC(F)(F)F)n3)cc2)CC1", "note": "[Compound 120, 5′-(4-fluorophenyl)-N-(4-(4-methylpiperazin-1-yl)phenyl)-3′-(2,2,2-trifluoroethyl)-1H,3′H-[2,4′-biimidazole]-4-carboxamide]", "Human Liver Microsome (μM/min/mg)": "++ (10-100 μM/min/mg as ++)"}
{"smiles": "CC(C)n1cnc(-c2ccc(F)cc2)c1-c1nc(C(=O)Nc2ccc(N(CCO)CCO)cc2)c[nH]1", "note": "[Compound 116, N-(4-(bis(2-hydroxyethyl)amino)phenyl)-5′-(4-fluorophenyl)-3′-isopropyl-1H,3′H-[2,4′-biimidazole]-4-carboxamide]", "Human Liver Microsome (μM/min/mg)": "+++ (1-10 μM/min/mg as +++)"}
{"smiles": "CC(C)n1cnc(-c2ccc(F)cc2)c1-c1nc(C(=O)Nc2ccc(N3CCN(CCO)CC3)cc2)c[nH]1", "note": "[Compound 117, 5′-(4-fluorophenyl)-N-(4-(4-(2-hydroxyethyl)piperazin-1-yl)phenyl)-3′-isopropyl-1H,3′H-[2,4′-biimidazole]-4-carboxamide]", "Human Liver Microsome (μM/min/mg)": "++ (10-100 μM/min/mg as ++)"}
{"smiles": "CC(C)n1cnc(-c2ccc(F)cc2)c1-c1nc(C(=O)Nc2ccc(CCCCC(=O)O)cc2)c[nH]1", "note": "[Compound 132, 5-(4-(5′-(4-fluorophenyl)-3′-isopropyl-1H,3′H-[2,4′-biimidazole]-4-carboxamido)phenyl)pentanoic acid]", "Human Liver Microsome (μM/min/mg)": "+++ (1-10 μM/min/mg as +++)"}
{"smiles": "CC(C)n1cnc(-c2ccc(F)c(F)c2)c1-c1nc(C(=O)Nc2ccc(N3CCN(C)CC3)cc2)c[nH]1", "note": "[Compound 156, 5′-(3,4-difluorophenyl)-3′-isopropyl-N-(4-(4-methylpiperazin-1-yl)phenyl)-1H,3′H-[2,4′-biimidazole]-4-carboxamide]", "Human Liver Microsome (μM/min/mg)": "++ (10-100 μM/min/mg as ++)"}
{"smiles": "CN1CCN(c2ccc(NC(=O)c3c[nH]c(-c4c(-c5ccc(F)cc5)ncn4[C@H]4CC[C@H](O)CC4)n3)cc2)CC1", "note": "[Compound 159, 5′-(4-fluorophenyl)-3′-((1r,4r)-4-hydroxycyclohexyl)-N-(4-(4-methylpiperazin-1-yl)phenyl)-1H,3′H-[2,4′-biimidazole]-4-carboxamide]", "Human Liver Microsome (μM/min/mg)": "++ (10-100 μM/min/mg as ++)"}
{"smiles": "CC(C)n1cnc(-c2ccc(F)cc2)c1-c1nc(C(=O)Nc2ccc(CCC(=O)O)cc2)c[nH]1", "note": "[Compound 102, 3-(4-(5′-(4-fluorophenyl)-3′-isopropyl-1H,3′H-[2,4′-biimidazole]-4-carboxamido)phenyl)propanoic acid]", "Human Liver Microsome (μM/min/mg)": "+++ (1-10 μM/min/mg as +++)"}
{"smiles": "CC(C)n1cnc(-c2ccc(F)c(F)c2)c1-c1nc(C(=O)Nc2ccc(N3CCN(CCO)CC3)cc2)c[nH]1", "note": "[Compound 146, 5′-(3,4-difluorophenyl)-N-(4-(4-(2-hydroxyethyl)piperazin-1-yl)phenyl)-3′-isopropyl-1H,3′H-[2,4′-biimidazole]-4-carboxamide]", "Human Liver Microsome (μM/min/mg)": "++ (10-100 μM/min/mg as ++)"}
{"smiles": "CC(C)n1cnc(-c2ccc(C(F)(F)F)cc2)c1-c1nc(C(=O)Nc2ccc(N3CCN(C)CC3)cc2)c[nH]1", "note": "[Compound 142, 3′-isopropyl-N-(4-(4-methylpiperazin-1-yl)phenyl)-5′-(4-(trifluoromethyl)phenyl)-1H,3′H-[2,4′-biimidazole]-4-carboxamide]", "Human Liver Microsome (μM/min/mg)": "+ (>100 μM/min/mg as)"}
{"smiles": "CC(C)n1cnc(-c2ccc(Cl)cc2)c1-c1nc(C(=O)Nc2ccc(N3CCN(CCO)CC3)cc2)c[nH]1", "note": "[Compound 139, 5′-(4-chlorophenyl)-N-(4-(4-(2-hydroxyethyl)piperazin-1-yl)phenyl)-3′-isopropyl-1H,3′H-[2,4′-biimidazole]-4-carboxamide]", "Human Liver Microsome (μM/min/mg)": "++ (10-100 μM/min/mg as ++)"}
{"smiles": "CC(C)n1cnc(-c2ccc(F)cc2)c1-c1nc(C(=O)Nc2ccc(N3CCN(S(N)(=O)=O)CC3)cc2)c[nH]1", "note": "[Compound 97, 5′-(4-fluorophenyl)-3′-isopropyl-N-(4-(4-sulfamoylpiperazin-1-yl)phenyl)-1H,3′H-[2,4′-biimidazole]-4-carboxamide]", "Human Liver Microsome (μM/min/mg)": "+ (>100 μM/min/mg as)"}
{"smiles": "CN1CCN(c2ccc(NC(=O)c3c[nH]c(-c4c(-c5ccc(F)cc5)ncn4C)n3)cc2)CC1", "note": "[Compound 119, 5′-(4-fluorophenyl)-3′-methyl-N-(4-(4-methylpiperazin-1-yl)phenyl)-1H,3′H-[2,4′-biimidazole]-4-carboxamide]", "Human Liver Microsome (μM/min/mg)": "++ (10-100 μM/min/mg as ++)"}
{"smiles": "CC(C)n1cnc(-c2ccc(F)cc2)c1-c1nc(C(=O)Nc2ccc(C(=O)O)cc2)c[nH]1", "note": "[Compound 113, 4-(5′-(4-fluorophenyl)-3′-isopropyl-1H,3′H-[2,4′-biimidazole]-4-carboxamido)benzoic acid]", "Human Liver Microsome (μM/min/mg)": "+++ (1-10 μM/min/mg as +++)"}
{"smiles": "O=C(Nc1ccc(N2CCNCC2)cc1)c1c[nH]c(-c2c(-c3ccc(F)cc3)ncn2CC(F)(F)F)n1", "note": "[Compound 167, 5′-(4-fluorophenyl)-N-(4-(piperazin-1-yl)phenyl)-3′-(2,2,2-trifluoroethyl)-1H,3′H-[2,4′-biimidazole]-4-carboxamide]", "Human Liver Microsome (μM/min/mg)": "++ (10-100 μM/min/mg as ++)"}
{"smiles": "CC(C)n1cnc(-c2ccc(F)cc2)c1-c1cccc(C(=O)Nc2ccc(N3CCN(C)CC3)cc2)n1", "note": "[Compound 127]", "Human Liver Microsome (μM/min/mg)": "+ (>100 μM/min/mg as)"}
{"smiles": "CC(C)n1cnc(-c2ccc(F)cc2)c1-c1cccc(C(=O)Nc2ccc(N3CCN(CCO)CC3)cc2)n1", "note": "[Compound 128]", "Human Liver Microsome (μM/min/mg)": "+ (>100 μM/min/mg as)"}
{"smiles": "CN1CCN(c2ccc(NC(=O)c3c[nH]c(-c4c(-c5ccc(F)cc5)ncn4C(F)F)n3)cc2)CC1", "note": "[Compound 130, 3′-(difluoromethyl)-5′-(4-fluorophenyl)-N-(4-(4-methylpiperazin-1-yl)phenyl)-1H,3′H-[2,4′-biimidazole]-4-carboxamide]", "Human Liver Microsome (μM/min/mg)": "++ (10-100 μM/min/mg as ++)"}
{"smiles": "O=C(Nc1ccc(N2CCN(CCO)CC2)cc1)c1c[nH]c(-c2c(-c3ccc(F)cc3)ncn2[C@H]2CC[C@H](O)CC2)n1", "note": "[Compound 158, 5′-(4-fluorophenyl)-3′-((1r,4r)-4-hydroxycyclohexyl)-N-(4-(4-(2-hydroxyethyl)piperazin-1-yl)phenyl)-1H,3′H-[2,4′-biimidazole]-4-carboxamide]", "Human Liver Microsome (μM/min/mg)": "+++ (1-10 μM/min/mg as +++)"}
{"smiles": "CC(C)n1cnc(-c2ccc(F)cc2)c1-c1nc(C(=O)Nc2ccc(N3CCNCC3)cc2)c[nH]1", "note": "[Compound 181, 5′-(4-fluorophenyl)-3′-isopropyl-N-(4-(piperazin-1-yl)phenyl)-1H,3′H-[2,4′-biimidazole]-4-carboxamide]", "Human Liver Microsome (μM/min/mg)": "++ (10-100 μM/min/mg as ++)"}
{"smiles": "C[N+]1([O-])CCN(c2ccc(NC(=O)c3c[nH]c(-c4c(-c5ccc(F)cc5)ncn4CC(F)(F)F)n3)cc2)CC1", "note": "[Compound 166, 4-(4-(5′-(4-fluorophenyl)-3′-(2,2,2-trifluoroethyl)-1H,3′H-[2,4′-biimidazole]-4-carboxamido)phenyl)-1-methylpiperazine 1-oxide]", "Human Liver Microsome (μM/min/mg)": "+++ (1-10 μM/min/mg as +++)"}
{"smiles": "CN1CCN(c2ccc(NC(=O)c3c[nH]c(-c4c(-c5ccc(F)cc5)ncn4CC(C)(C)C)n3)cc2)CC1", "note": "[Compound 135, 5′-(4-fluorophenyl)-N-(4-(4-methylpiperazin-1-yl)phenyl)-3′-neopentyl-1H,3′H-[2,4′-biimidazole]-4-carboxamide]", "Human Liver Microsome (μM/min/mg)": "+ (>100 μM/min/mg as)"}
{"smiles": "CC(C)n1cnc(-c2ccc(F)cc2)c1-c1ccc(C(=O)Nc2ccc(N3CCN(C)CC3)cc2)o1", "note": "[Compound 121, 5-(4-(4-fluorophenyl)-1-isopropyl-1H-imidazol-5-yl)-N-(4-(4-methylpiperazin-1-yl)phenyl)furan-2-carboxamide]", "Human Liver Microsome (μM/min/mg)": "+ (>100 μM/min/mg as)"}
{"smiles": "CC(C)n1cnc(-c2ccc(F)cc2)c1-c1cccc(C(=O)Nc2ccc(CCC(=O)O)cc2)n1", "note": "[Compound 131]", "Human Liver Microsome (μM/min/mg)": "+++ (1-10 μM/min/mg as +++)"}
{"smiles": "CC(C)n1cnc(-c2ccc(Cl)cc2)c1-c1nc(C(=O)Nc2ccc(CCC(=O)O)cc2)c[nH]1", "note": "[Compound 137, 3-(4-(5′-(4-chlorophenyl)-3′-isopropyl-1H,3′H-[2,4′-biimidazole]-4-carboxamido)phenyl)propanoic acid]", "Human Liver Microsome (μM/min/mg)": "+++ (1-10 μM/min/mg as +++)"}
{"smiles": "CC(C)n1cnc(-c2ccc(F)cc2)c1-c1nc(C(=O)Nc2ccc(CCO)cc2)c[nH]1", "note": "[Compound 111, 5′-(4-fluorophenyl)-N-(4-(2-hydroxyethyl)phenyl)-3′-isopropyl-1H,3′H-[2,4′-biimidazole]-4-carboxamide]", "Human Liver Microsome (μM/min/mg)": "++ (10-100 μM/min/mg as ++)"}
{"smiles": "CC(C)n1cnc(-c2ccc(F)cc2)c1-c1ccc(C(=O)Nc2ccc(CCO)cc2)o1", "note": "[Compound 126, 5-(4-(4-fluorophenyl)-1-isopropyl-1H-imidazol-5-yl)-N-(4-(2-hydroxyethyl)phenyl)furan-2-carboxamide]", "Human Liver Microsome (μM/min/mg)": "+ (>100 μM/min/mg as)"}
